For the first assay, the system named is immunoglobulin light chain protein WIL-FL T46L. Briefly: Differential scanning fluorimetry (thermal shift) assay. The format is binding. The conditions noted are these: Table A; temperature shift [Tm]compound-[Tm]vehicle; recombinant WIL-FL T46L.
`Cc1cc(N2CCC(C)(c3ccccc3Cl)C2)cn2nc(C(=O)N3CC[C@@]4(CCN(c5cccc(C(=O)O)n5)C4)C3)nc12` (stereo partly drawn) [Compound 417]: the DSF entry is given as “***** (>2.5° C.=*****)”.
Same read-out and setting: for `CNC(=O)c1cc2c(N)cc(N3CC[C@](C)(c4ccccc4)C3)cn2n1` [Compound 292] the value was “*** (>1-1.5° C.=***)”; for `Cc1cc(N2CC[C@](C)(c3ccccc3)C2)cn2nc(C(=O)NC3(C)CCN(c4ccnc(C(=O)O)c4)CC3)nc12` [Compound 282], “***** (>2.5° C.=*****)”.
Take `Cc1cc(N2CC[C@](C)(c3ccccc3)C2)cn2nc(C(=O)NC34CCC(CO)(C3)C4)nc12` [Compound 204]: the DSF entry is reported as “***** (>2.5° C.=*****)”.
Same read-out and setting: under `CC(O)c1cc(N2CC[C@](C)(c3ccccc3)C2)cn2nc(C(=O)NC3CC4(C3)CC(N3CC5C(C3)C5C(=O)O)C4)nc12` (stereo partly drawn) [Compound 341] stands “***** (>2.5° C.=*****)”; under `Cc1cc(N2CC[C@](C)(c3ccccc3)C2)cn2nc(C(=O)NC3CC(N4C[C@H](O)[C@@H](O)C4)C3)nc12` (stereo partly drawn) [Compound 362], “***** (>2.5° C.=*****)”.
On the same count and under the same terms, under `Cc1cc(N2CC[C@](C)(c3ccccc3)C2)cn2nc(C(=O)N[C@H]3CNCC34CC4)nc12` [Compound 187] stands “***** (>2.5° C.=*****)”.

The assay is the same for the next values; noted with them: Table B; temperature shift [Tm]compound-[Tm]vehicle; recombinant WIL-FL T46L.
As for `COC(C)(CC(=O)N1CC[C@@]2(CCN(C(=O)c3nc4c(C)cc(N5CC[C@](C)(c6ccccc6)C5)cn4n3)C2)C1)C(=O)O` (stereo partly drawn) [Compound 706, 2-methoxy-2-methyl-4-[(5R)-2-[8-methyl-6-[(3R)-3-methyl-3-phenyl-pyrrolidin-1-yl]-[1,2,4]triazolo[1,5-a]pyridine-2-carbonyl]-2,7-diazaspiro[4.4]nonan-7-yl]-4-oxo-butanoic acid], the DSF result is listed as “***** (>2.5° C.=*****)”.
Turning to `Cc1cc(N2CCC(C)(n3cc(C(F)(F)F)cn3)C2)cn2nc(C(=O)N3CC[C@@]4(CCN(c5cccc(C(=O)O)n5)C4)C3)nc12` (stereo partly drawn) [Compound 744, 6-[(5R)-2-[8-methyl-6-[3-methyl-3-[4-(trifluoromethyl)pyrazol-1-yl]pyrrolidin-1-yl]-[1,2,4]triazolo[1,5-a]pyridine-2-carbonyl]-2,7-diazaspiro[4.4]nonan-7-yl]pyridine-2-carboxylic acid], the DSF entry was “***** (>2.5° C.=*****)”.

The values are drawn from US20260285857A1, “BICYCLIC AND HETEROCYCLIC AMIDE COMPOUNDS” (priority 2024, published 2026).
